The nature of data set [1]: Crystallinity of spray dried gallium powders by powder X-ray diffraction. The format is physicochemical. The settings on record: qualitative analysis of crystallinity, XRD 5° to 75° 2θ. As to the method: Crystallinity of the spray dried gallium powders was determined using a Philips X-Pert Pro MPD powder diffractometer. The radiation used was generated by a Cu Kα source with a wavelength of 1.5406 Å at 45 kV and 40 mA. Samples were scanned from 5° to 75° 2θ at a scanning rate of 1.2° 2θ/min using a slit width of 0.25°. Particular emphasis was placed on determining the effects of the various excipients on the crystallinity of the spray dried particles. The composition of the gallium formulations examined, as well as the residual moisture content and a qualitative analysis of crystallinity are shown in Table 8. X-ray diffractometer (XRD) scans reveal that spray dried gallium nitrate is amorphous as are mannitol and L-leucine (FIG. 5). Sodium citrate, however, is crystalline and the crystallinity is maintained even in the presence of other excipients.

Another data set concerns B. anthracis 7702 cells. The format is cell-based. The following applies: 1:1 gallium-to-citrate, approximately 20 hours of growth.
Data set [2] concerns Pseudomonas aeruginosa (Pa). The settings on record: against Pa; cited from earlier work.
For another data set, the system named is Pa. The following applies: mouse; nasal instillation of a bolus of liquid; also under in vivo Pa biofilm colonization conditions; cited from earlier work.

Like-named read-outs stand apart in the source and are kept apart here.

Turning to `O=[N+]([O-])[O-].O=[N+]([O-])[O-].O=[N+]([O-])[O-].[Ga+3]` [Gallium, gallium nitrate], in data set [1], the Crystalline/Amorphous result is “amorphous”. Also, the OD600 nm is on record as 0.000 in the data set with B. anthracis 7702 cells (Gallium concentration 6.8 μM); 0.000 with B. anthracis 7702 cells (Gallium concentration 23.3 μM); 0.001 in the data set on B. anthracis 7702 cells (Gallium concentration 27.1 μM); 0.003 in the data set on B. anthracis 7702 cells (Gallium concentration 88.9 μM); 0.000 with B. anthracis 7702 cells (Gallium concentration 614.8 μM); 0.000 in the data set on B. anthracis 7702 cells (Gallium concentration 1709.9 μM). Further, the “bactericidal concentration (MBC)” value in data set [2] is “approximately 0.7 μg/mL”. In addition, in data set [2], the “minimum inhibitory concentration (MIC90)” value is “approximately 0.7 μg/mL”. The “protection after lethal i.t. Pa inoculation” value in the data set with Pa was “good protection”.

Values taken from patent US8637090B2, “Gallium formulation for the treatment and prevention of infectious diseases” (Aridis Pharmaceuticals, priority 2009, dated 2014).
